Laboratory results published in US8067452B2, “3-hydroxyisothiazole-4-carboxamidine derivatives as CHK2 inhibitors” (Valeant Pharmaceuticals International, priority 2007, dated 2011).

Target: T1, Chk2 (Homo sapiens, UniProt O96017)
T1 construct: GST; purchased Upstate (Lake Placid, N.Y.)
Experiment: In vitro kinase assay with recombinant Chk2 (MBP phosphorylation, [γ-33P]ATP)
Assay type: biochemical
Conditions: recombinant human GST-Chk2 10 nM, 25 μM MBP, 100 μM ATP, 30 min at 24° C.; read-out: The enzymatic IC50 values of compounds against Chk2
Description: In vitro kinase assays with recombinant Chk1 and Chk2. Recombinant human GST-Chk1 and GST-Chk2 proteins were purchased from Upstate (Lake Placid, N.Y.). Assay conditions were based on published protocols with minor modifications. Briefly, 10 nM of Chk1 or Chk2 was used to phosphorylate 25 μM myelin basic protein (MBP) (Invitrogen, Carlsbad, Calif.) This reaction took place in a buffer that contained 8 mM MOPS, pH 7.2, 10 mM β-glycerol phosphate, 1.5 mM EGTA, 0.4 mM EDTA, 0.4 mM sodium orthovanadate, 100 μM ATP, 1 μCi [γ-^33P] ATP, 15 mM MgCl2, 0.4 mM DTT, 0.006% Brij-35, 1% glycerol and 0.2 mg/ml BSA in a final volume of 25 μl. The reaction was incubated for 30 minutes at 24° C. and was terminated by adding 100 μl of 1% trichloroacetic acid. The quenched solution was incubated for 5 min at room temperature to allow the protein to precipitate and then subsequently transferred to a 96-well white GF/B filter plate (Perkin Elmer, Wellesley, Mass.) using a Perkin Elmer Filtermate Universal Harvester. The filter plate was washed ten times with water and once with ethanol before completely drying. 40 μL of Microscint™ (Perkin Elmer, Wellesley, Mass.) was added to each well and the radioactivity that was incorporated into MBP was counted using a Perkin Elmer TopCount. The compound was titrated and its IC50 values against both Chk1 and Chk2 were determined. The reported IC50 values are the average of at least two sets of data. To determine the competitive nature of the compound with ATP, the compound concentration was varied from 0-200 nM while ATP was varied from 50-500 μM in the assays to assess the ATP effect on inhibition. Prism 4.0 software (GraphPad, San Diego Calif.) was used for the IC50 determination and Lineweaver-Burk kinetic analysis.

T1 sequence (O96017 whole entry): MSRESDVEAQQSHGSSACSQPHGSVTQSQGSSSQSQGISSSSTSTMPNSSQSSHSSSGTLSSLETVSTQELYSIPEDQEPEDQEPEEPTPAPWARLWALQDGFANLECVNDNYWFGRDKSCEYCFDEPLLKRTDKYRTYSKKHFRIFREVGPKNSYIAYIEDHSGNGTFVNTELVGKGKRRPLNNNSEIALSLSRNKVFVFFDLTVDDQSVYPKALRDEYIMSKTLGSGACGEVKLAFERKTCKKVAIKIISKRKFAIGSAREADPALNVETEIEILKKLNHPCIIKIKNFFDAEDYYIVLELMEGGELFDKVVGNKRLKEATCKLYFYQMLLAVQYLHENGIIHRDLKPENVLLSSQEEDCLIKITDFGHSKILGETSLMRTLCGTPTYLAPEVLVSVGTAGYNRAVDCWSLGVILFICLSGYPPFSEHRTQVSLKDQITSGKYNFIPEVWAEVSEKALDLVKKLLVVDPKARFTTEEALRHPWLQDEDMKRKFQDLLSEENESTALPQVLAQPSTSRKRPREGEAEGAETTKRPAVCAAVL

IC50 [nM] | Structure (SMILES)
1 to 500 | CC(C)NC(=N)c1c(O)nsc1Nc1ccc(Nc2ccc(Br)cc2)cc1 [Entry 1]
1 to 500 | CC(CO)NC(=N)c1c(O)nsc1Nc1ccc(Nc2ccc(Br)cc2)cc1 (stereo not shown) [Entry 2]
1 to 500 | N=C(NCCO)c1c(O)nsc1Nc1ccc(Nc2ccc(Br)cc2)cc1 [Entry 3]
1 to 500 | N=C(NCC1CCCCC1)c1c(O)nsc1Nc1ccc(Nc2ccc(Br)cc2)cc1 [Entry 4]
1 to 500 | N=C(NCCCCO)c1c(O)nsc1Nc1ccc(Nc2ccc(Br)cc2)cc1 [Entry 5]
1 to 500 | N=C(NCC(O)CO)c1c(O)nsc1Nc1ccc(Nc2ccc(Br)cc2)cc1 (stereo not shown) [Entry 6]
1 to 500 | CC(C)NC(=N)c1c(O)nsc1Nc1ccc(Nc2ccccc2)cc1 [Entry 7]
1 to 500 | CC(CO)NC(=N)c1c(O)nsc1Nc1ccc(Nc2ccccc2)cc1 (stereo not shown) [Entry 8]
500 to 1000 | N=C(NCCO)c1c(O)nsc1Nc1ccc(Nc2ccccc2)cc1 [Entry 9]
1000 to 2000 | N=C(NCC1CCCCC1)c1c(O)nsc1Nc1ccc(Nc2ccccc2)cc1 [Entry 10]
1000 to 2000 | N=C(NCCCCO)c1c(O)nsc1Nc1ccc(Nc2ccccc2)cc1 [Entry 11]
500 to 1000 | N=C(NCC(O)CO)c1c(O)nsc1Nc1ccc(Nc2ccccc2)cc1 (stereo not shown) [Entry 12]
1 to 500 | N=C(NCc1cccc2ccccc12)c1c(O)nsc1Nc1ccc(Nc2ccccc2)cc1 [Entry 13]
